Experimental data taken from patent publication US11185527B2, “Methods and compositions relating to steroid hormone receptor-dependent cancers” (Wayne State University, priority 2017, dated 2021).

Experiments:
[1] = mouse, in vivo
[2] = tested on: AR recruitment to chromatin in LNCaP cells; assay: Chromatin immunoprecipitation (ChIP) with AR antibody in LNCaP cells; type: cell-based; details: R1881 10 nM + KCI807 20 uM, 2h
Method: FIGS. 2E and 2F are graphs showing results of tests in which LNCaP cells were treated with R1881 (10 nM), R1881 (10 nM)+KCI807 (20 uM), or vehicle for 2h. The cells were fixed and subjected to the chromatin immunoprecipitation (ChIP) assay using antibody to AR. ChIP signals from established sites of AR recruitment by ELK1 (FIG. 2E) or from canonical ARE enhancer sites associated with the KLK3 and TMPRSS2 genes (FIG. 2F) are plotted as percent of input DNA.
The ability of KCI807 to selectively block recruitment of AR by ELK1 to chromatin in situ was tested.

[3] = Intracellular concentration of compounds by LC-MS/MS (relative stability); type: in vitro ADME; details: media concentration of 2 uM compound
Method: The suspended cells were sonicated to cell lysate, and then 1000 μL ethyl acetate was added. The mixture was vortex-mixed for 15 minutes and centrifuged at 14000 rpm at […] for 15 min. 950 uL of the supernatant was transferred to a new 1.7 mL centrifuge tube, and dried under a steam of nitrogen at room temperature. The sample was then reconstituted with 100 μL 40% acetonitrile, and 5 μL was injected into the LC-MS/MS system. Measured concentrations were normalized to cell protein concentrations.

22Rv1 CRPC cells = assay: Colony growth assay; type: cell-based, human
Method: FIGS. 4A, 4B, 4C, 4D, 4E, 4F, 4G, and 4H relate to inhibition of AR-dependent PC/CRPC clonogenic survival and cell growth by KCI807 and comparison with enzalutamide. FIG. 4A is an image of 22Rv1 cells that were seeded in phenol red-free growth media and treated with the indicated concentration of KCI807, replenishing the treatments every 48h. Colonies were stained with crystal violet 10 days after plating. Treatments were conducted in triplicate. Representative images are shown. FIG. 4B is a graph showing data from replicate colony formation assays shown in FIG. 4A are plotted as a histogram. Each bar represents the average number of colonies for each triplicate treatment. Cells were trypsinized, and 1000 cells/well were seeded in poly-D-lysine coated 6-well plates in phenol red-free regular growth media. The cells were treated with the indicated concentration of KCI807, which was replenished every 48h. The cells were grown at 37° C. in 5% CO2 for 10 days until colonies-grew to the desired size in the untreated control wells. Colonies were fixed with methanol and stained with crystal violet. Each treatment was conducted in triplicate and the number of colonies was counted using the GelCount™ colony counter and a 350 size cutoff.

binding of ER to ELK1 = assay: SPR competition: inhibition of binding of ER (analyte) to immobilized ELK1; details: ER 200 nM, compound 0-32 uM
Method: A fixed concentration of ER (200 nM) was combined with 5,3′-Dihydroxyflavone diluted in a series (0, 1, 2,4, 8, 16, and 32 uM).
A fixed concentration of ER (200 nM) was combined with 5,3′-Dihydroxyflavone diluted in a series (0, 1, 2, 4, 8, 16, and 32 uM). […] This explains the ability of the compound to inhibit the estrogen-dependent growth of breast cancer cells, as ELK1 is required for estrogen-dependent growth of breast cancer cells.

[4] = tested on: HEK293 (adenovirus transformed kidney fibroblasts), AR-negative; assay: Cell monolayer growth assay (MTT); type: cell-based
Method: FIG. 12C is a graph showing the effect of KCI807 on in vitro growth of AR-negative cell line HEK293 cells measured by the MTT assay. All values were plotted relative to the Day zero value.
Cells were trypsinized and 3000-4000 cells/well were seeded in 96-well plates coated with poly-D-lysine. The cells were seeded in phenol red-free medium supplemented with 10% FBS, 100 units/ml penicillin, 100 μg/ml streptomycin, 2 mM L-glutamine mixture and sodium pyruvate (1 mM) for LNCaP cells and phenol red-free medium supplemented with 10% FBS, 100 units/ml penicillin, 100 μg/ml streptomycin and 2 mM L-glutamine mixture for VCaP, 22Rv1, DU145, HeLa, HEK293 and H1650 cells. The cells were grown at 37° C. in 5% CO2. Twenty four hours after seeding in the 96-well plates, the cells were treated with the indicated concentration of KCI807 or DMSO (vehicle). The cells were re-treated on Day 3 by removing half the volume of medium and replacing it with fresh treated medium. Cell viability was determined using the MTT assay from day zero until day five. MTT (10 μL, 5 mg/mL) was added to each well and incubated for 2h at 37° C. The formazan crystal sediments were dissolved in 100 μL of DMSO, and the absorbance at 570 nm was measured using the BioTek Synergy 2 Microplate Reader (BioTek, Winooski, Vt.). The assay was conducted in sextuplicate wells and values were normalized to day zero.

[5] = Body weight and condition of mice in the 22Rv1 xenograft study; details: 22Rv1 study

SMILES | symptoms during the study, 22Rv1 xenograft [1] | weight loss (in words), 22Rv1 xenograft [1] | AR association with chromatin sites at which ELK1 recruits AR [2] | AR recruitment at canonical ARE enhancer sites (KLK3, TMPRSS2) [2] | intracellular concentration between 1h and 6h [3] | colony growth inhibition (in words) (22Rv1 CRPC cells; 22Rv1, beyond 125 nM compound) | IC50 (22Rv1 CRPC cells; Homo sapiens, 22Rv1, 10 days, treatment replenished every 48h, read-out: IC50 of colony growth inhibition) [nM] | inhibition of binding of ER to immobilized ELK1 (binding of ER to ELK1) | growth of HEK293 cells [4] | % body weight lost/gained ([5]; Day 0 after tumor implantation) [%] | % body weight lost/gained ([5]; Day 6 after tumor implantation) | % body weight lost/gained ([5]; Day 11 after tumor implantation) | % body weight lost/gained ([5]; Day 14 after tumor implantation) | % body weight lost/gained ([5]; Day 17 after tumor implantation) | % body weight lost/gained ([5]; Day 20 after tumor implantation) | % body weight lost/gained ([5]; Day 24 after tumor implantation) | % body weight lost/gained ([5]; Day 25 after tumor implantation)
O=c1cc(-c2cccc(O)c2)oc2cccc(O)c12 [KCI807, 5,3′-dihydroxyflavone] | asymptomatic | did not show appreciable weight loss | prevented association of AR | did not affect AR recruitment | unchanged | virtually completely inhibited | 33.1 | inhibits the binding of ER to ELK1 | did not appreciably affect the growth | – | – | – | – | – | – | – | –
CNC(=O)c1ccc(N2C(=S)N(c3ccc(C#N)c(C(F)(F)F)c3)C(=O)C2(C)C)cc1F [enzalutamide] | – | – | – | – | – | – | – | – | – | 0 | +3.7% | +5.5% | +3.7% | +4.6% | +4.6% | +4.6% | +3.7%
